Columns and labels:
786-0 = test: cells; conditions: Homo sapiens
K-562 = test: NCI in vitro screen, SRB percent growth, Leukemia
MALME-3M = test: NCI in vitro screen, SRB percent growth, Melanoma
M14 = test: NCI in vitro screen, SRB percent growth, Melanoma
UACC-62 = test: NCI in vitro screen, SRB percent growth, Melanoma
SF-295 = test: NCI in vitro screen, SRB percent growth, CNS Cancer
SNB-75 = test: as above
U251 = test: as above
XF 498 = test: as above
HCT-116 = test: NCI in vitro screen, SRB percent growth, Colon Cancer
HCT-15 = test: as above
HT29 = test: as above
ACHN = test: NCI in vitro screen, SRB percent growth, Renal Cancer
CAKI-1 = test: as above
RXF-631 = test: as above
OVCAR-8 = test: NCI in vitro screen, SRB percent growth, Ovarian Cancer
[1] = 786-0, read-out: Percent Growth
[2] = Log10 Concentration -4.0, 100 µM
[3] = Log10 Concentration -7.0, 0.1 µM

SMILES: COc1ccc2[nH]c3c(C)c4c(c(C)c3c2c1)CN(C)C=C4 [Formula VII]
- GI50 (786-0; 786-0): 0.0408 µM
- CC50 (786-0; 786-0, read-out: LC-50): 66.7 µM
- activity at 0.01 µM (786-0; [1]): 69%
- activity at 0.1 µM (786-0; [1]): 38%
- activity at 1 µM (786-0; [1]): 3%
- activity at 10 µM (786-0; [1]): -20%
- activity at 100 µM (786-0; [1]): -56%
- IC (TGI) (786-0; 786-0, read-out: TGI): 1.3 µM
- Percent Growth (K-562; [2]): -24%
- Percent Growth (K-562; Log10 Concentration -5.0): 11%
- Percent Growth (K-562; Log10 Concentration -6.0, 1 µM): 75%
- Percent Growth (K-562; [3]): 84%
- TGI (K-562; PG=0): 20.4 µM
- GI50 (K-562; PG=+50): 2.48 µM
- CC50 (K-562; read-out: LC-50, PG=-50): > 100 µM
- Percent Growth (MALME-3M; Log10 Concentration -5.0): -31%
- Percent Growth (MALME-3M; Log10 Concentration -6.0, 1 µM): 55%
- Percent Growth (MALME-3M; [3]): 110%
- Percent Growth (MALME-3M; Log10 Concentration -8.0): 112%
- TGI (MALME-3M; PG=0): 4.37 µM
- GI50 (MALME-3M; PG=+50): 1.41 µM
- CC50 (MALME-3M; read-out: LC-50, PG=-50): > 100 µM
- Percent Growth (M14; [2]): -98%
- Percent Growth (M14; Log10 Concentration -5.0): 40%
- Percent Growth (M14; Log10 Concentration -6.0, 1 µM): 103%
- Percent Growth (M14; [3]): 111%
- Percent Growth (M14; Log10 Concentration -8.0): 99%
- TGI (M14; PG=0): 19.6 µM
- GI50 (M14; PG=+50): 7.01 µM
- CC50 (M14; read-out: LC-50, PG=-50): 45.2 µM
- Percent Growth (UACC-62; [2]): -44%
- Percent Growth (UACC-62; Log10 Concentration -5.0): 31%
- Percent Growth (UACC-62; Log10 Concentration -6.0, 1 µM): 88%
- Percent Growth (UACC-62; [3]): 118%
- Percent Growth (UACC-62; Log10 Concentration -8.0): 129%
- TGI (UACC-62; PG=0): 26.1 µM
- GI50 (UACC-62; PG=+50): 4.68 µM
- CC50 (UACC-62; read-out: LC-50, PG=-50): > 100 µM
- Percent Growth (SF-295; [2]): -51%
- Percent Growth (SF-295; Log10 Concentration -5.0): -30%
- Percent Growth (SF-295; Log10 Concentration -6.0, 1 µM): 11%
- Percent Growth (SF-295; [3]): 65%
- Percent Growth (SF-295; Log10 Concentration -8.0): 88%
- TGI (SF-295; PG=0): 1.89 µM
- GI50 (SF-295; PG=+50): 0.191 µM
- CC50 (SF-295; read-out: LC-50, PG=-50): 89.5 µM
- Percent Growth (SNB-75; [2]): -58%
- Percent Growth (SNB-75; Log10 Concentration -5.0): -78%
- Percent Growth (SNB-75; Log10 Concentration -6.0, 1 µM): -53%
- Percent Growth (SNB-75; [3]): 86%
- Percent Growth (SNB-75; Log10 Concentration -8.0): 126%
- TGI (SNB-75; PG=0): 0.416 µM
- CC50 (SNB-75; read-out: LC-50, PG=-50): 0.953 µM
- Percent Growth (U251; [2]): -47%
- Percent Growth (U251; Log10 Concentration -5.0): -45%
- Percent Growth (U251; Log10 Concentration -6.0, 1 µM): 3%
- Percent Growth (U251; [3]): 87%
- TGI (U251; PG=0): 1.18 µM
- GI50 (U251; PG=+50): 0.276 µM
- CC50 (U251; read-out: LC-50, PG=-50): > 100 µM
- Percent Growth (XF 498; [2]): -60%
- Percent Growth (XF 498; Log10 Concentration -5.0): -25%
- Percent Growth (XF 498; Log10 Concentration -6.0, 1 µM): 81%
- Percent Growth (XF 498; [3]): 140%
- Percent Growth (XF 498; Log10 Concentration -8.0): 174%
- TGI (XF 498; PG=0): 5.82 µM
- GI50 (XF 498; PG=+50): 1.97 µM
- CC50 (XF 498; read-out: LC-50, PG=-50): 52.7 µM
- Percent Growth (HCT-116; [2]): -28%
- Percent Growth (HCT-116; Log10 Concentration -5.0): 29%
- Percent Growth (HCT-116; Log10 Concentration -6.0, 1 µM): 80%
- Percent Growth (HCT-116; [3]): 101%
- Percent Growth (HCT-116; Log10 Concentration -8.0): 106%
- TGI (HCT-116; PG=0): 32.2 µM
- GI50 (HCT-116; PG=+50): 3.88 µM
- CC50 (HCT-116; read-out: LC-50, PG=-50): > 100 µM
- Percent Growth (HCT-15; [2]): 16%
- Percent Growth (HCT-15; Log10 Concentration -5.0): 96%
- Percent Growth (HCT-15; Log10 Concentration -6.0, 1 µM): 111%
- Percent Growth (HCT-15; [3]): 114%
- Percent Growth (HCT-15; Log10 Concentration -8.0): 118%
- TGI (HCT-15; PG=0): > 100 µM
- GI50 (HCT-15; PG=+50): 37.7 µM
- CC50 (HCT-15; read-out: LC-50, PG=-50): > 100 µM
- Percent Growth (HT29; [2]): -73%
- Percent Growth (HT29; Log10 Concentration -5.0): 24%
- Percent Growth (HT29; Log10 Concentration -6.0, 1 µM): 88%
- Percent Growth (HT29; [3]): 112%
- Percent Growth (HT29; Log10 Concentration -8.0): 97%
- TGI (HT29; PG=0): 17.8 µM
- GI50 (HT29; PG=+50): 3.92 µM
- CC50 (HT29; read-out: LC-50, PG=-50): 58 µM
- Percent Growth (ACHN; [2]): -4%
- Percent Growth (ACHN; Log10 Concentration -5.0): 79%
- Percent Growth (ACHN; Log10 Concentration -6.0, 1 µM): 102%
- Percent Growth (ACHN; [3]): 113%
- Percent Growth (ACHN; Log10 Concentration -8.0): 113%
- TGI (ACHN; PG=0): 89.1 µM
- GI50 (ACHN; PG=+50): 22.4 µM
- CC50 (ACHN; read-out: LC-50, PG=-50): > 100 µM
- Percent Growth (CAKI-1; [2]): -11%
- Percent Growth (CAKI-1; Log10 Concentration -5.0): 38%
- Percent Growth (CAKI-1; Log10 Concentration -6.0, 1 µM): 83%
- Percent Growth (CAKI-1; [3]): 107%
- Percent Growth (CAKI-1; Log10 Concentration -8.0): 110%
- TGI (CAKI-1; PG=0): 60.7 µM
- GI50 (CAKI-1; PG=+50): 5.5 µM
- CC50 (CAKI-1; read-out: LC-50, PG=-50): > 100 µM
- Percent Growth (RXF-631; [2]): -29%
- Percent Growth (RXF-631; Log10 Concentration -5.0): 18%
- Percent Growth (RXF-631; Log10 Concentration -6.0, 1 µM): 38%
- Percent Growth (RXF-631; [3]): 83%
- Percent Growth (RXF-631; Log10 Concentration -8.0): 106%
- TGI (RXF-631; PG=0): 24.3 µM
- GI50 (RXF-631; PG=+50): 0.536 µM
- CC50 (RXF-631; read-out: LC-50, PG=-50): > 100 µM
- Percent Growth (OVCAR-8; [2]): -17%
- Percent Growth (OVCAR-8; Log10 Concentration -5.0): 5%
- Percent Growth (OVCAR-8; Log10 Concentration -6.0, 1 µM): 28%
- Percent Growth (OVCAR-8; [3]): 67%
- Percent Growth (OVCAR-8; Log10 Concentration -8.0): 72%
- TGI (OVCAR-8; PG=0): 16.6 µM
- GI50 (OVCAR-8; PG=+50): 0.274 µM
- CC50 (OVCAR-8; read-out: LC-50, PG=-50): > 100 µM

— patent publication US5441941A, “1,2-dihydroellipticines with activity against CNS specific cancer” (The United States of America as represented by the …, priority 1993, dated 1995)
